{
  "source": "paper PMC4448987",
  "about": "“A neuroligin-1-derived peptide stimulates phosphorylation of the NMDA receptor NR1 subunit and rescues MK-801-induced decrease in long-term potentiation and memory impairment” (Pharmacology Research & Perspectives, 2015)",
  "key": {"adult male Wistar rats": {"test_system": "adult male Wistar rats", "assay": "Social recognition test", "type": "in vivo", "settings": "rat", "description": "Social memory in animals reflects the ability to recognize conspecifics as familiar or unfamiliar. The social recognition test was performed basically as described previously (Secher et al. [2006]), (see Data S1). […] Rats were handled 5 days prior to the experiment and habituated to the transparent test cages for 1 h before start of experiment. The tests included three trials (T1–3), separated by intertribal periods of 2 and 24 h, with the test rat being introduced to a 3-week-old juvenile conspecific (40–50 g; Charles River) for 4 min each time. Investigative behavior was recorded and used to calculate recognition ratios (RR) as previously described (Kogan et al. [2000]). Retention periods longer than 1 h are believed to result in no or only minimal retention of social memory (Popik and van Ree [1998]; Secher et al. [2006]). Terminally, rats were rapidly and humanely rendered unconscious by concussive stunning and euthanized by cervical dislocation.\nSocial memory in animals reflects the ability of individuals to recognize conspecifics as familiar or unfamiliar. The animals were handled for 5 days prior to the experiments to minimize stress, habituated to the test cage, and trained to interact with a juvenile rat. Two groups of adult rats were used: a control group and a neurolide-1-treated group. Neurolide-1 (10 mg/kg) or vehicle (saline, 1 ml/kg) was injected subcutaneously (s.c.) two times, 24 and 2 h before the experiment. […] In the first trial, a 3-week-old juvenile male rat was introduced to the experimental adult rat for 4 min, and the time spent investigating the juvenile (e.g., licking, sniffing, chewing, and close following) was scored. Two hours later, a second trial was performed by reintroducing the same juvenile to the test rat to for 4 min, and investigative behavior was recorded. From the two trials, a recognition ratio (RR) was calculated as T2 / (T1 + T2), in which T1 and T2 were the times spent investigating the juvenile during the first and second trials, respectively. […]"}, "male Wistar rats": {"test_system": "male Wistar rats", "assay": "Y maze test (spontaneous alternation)", "type": "in vivo, rat", "description": "NMDA-mediated effects of Neurolide-1 on spatial working memory performance was assessed by recording spontaneous alternation behavior in a Y maze test performed as described previously (Wegener et al. [2011]), (See Data S1). Initially, adult male Wister rats (420–490 g, n = 6–12; Charles River) were injected s.c., three times at 28, 4, and 2 h before start of the Y maze test. One group received Neurolide-1, saline, and neurolide-1 in this order. Another group received saline, MK-801, and saline in this order. A third group received neurolide-1, MK-801, and neurolide-1 in this order. And control group received saline at all times. In a second setup we tested the effect of neurolide-1 in very young male Wistar rats (4-weeks old) which received a s.c., injection of neurolide-1 or saline 2 h prior to testing them in the Y-maze (n = 11–15). Terminally, rats were rapidly and humanely rendered unconscious by concussive stunning and euthanized by cervical dislocation.\nThe maze was made of gray polyvinyl chloride, with three identical arms (425 mm length × 225 mm height × 145 mm width) mounted symmetrically to an equilateral triangular center section. Each rat was placed at the end of one arm and allowed to explore the apparatus freely for 8 min. The sequence and number of all arm entries were recorded for each animal throughout the testing period. An alternation was defined as entries into all three arms on consecutive occasions. Therefore, the number of maximal alternation was the total number of arm entries minus 2, and the percentage of alternation was calculated as (actual alternations / maximal alternations) × 100. The total number of arms entered during the sessions was also determined (Yamaguchi et al, 2006). Data were eliminated in cases in which the number of total arm entries was less than 10 or when the rat escaped from the Y maze. After each trial, the Y maze was cleaned with 1% Virkon S (Pharmaxim, Helsingborg, Sweden)."}, "[1]": {"settings": "4-week-old male Wistar rats, single s.c. treatment 2 h before test, n = 11-15"}},
  "data": [
    {"sequence": "SEGNRWSNSTKGLFQRA [neurolide-1]", "values": [
      {"measurement": "long-term social memory, 24 h after the first trial", "setting": "adult male Wistar rats; 10 mg/kg s.c. 24 and 1 h before first trial, n = 12", "result": "did not exhibit an improvement in social memory"},
      {"measurement": "short-term social memory (recognition ratio), intertrial interval 2 h", "setting": "adult male Wistar rats; 10 mg/kg s.c. 24 and 1 h before first trial, same juvenile, n = 12, P < 0.001 vs control", "result": "enhanced social memory"},
      {"measurement": "recognition ratio with a new unfamiliar juvenile in the second trial", "setting": "adult male Wistar rats; 10 mg/kg s.c. twice, control test, compared with vehicle group or theoretical value 0.5, n = 12", "result": "did not lead to a decrease in the RR"},
      {"measurement": "alternation rate in 4-week-old rats", "setting": "male Wistar rats; [1]", "result": 76, "unit": "%"},
      {"measurement": "total number of arms visited in 4-week-old rats", "setting": "male Wistar rats; [1]", "result": "slightly decreased the total number of arms visited"},
      {"measurement": "working memory performance (alternation rate), peptide alone", "setting": "male Wistar rats; adult rats 420-490 g, neurolide-1 10 mg/kg s.c. 24 and 2 h before test, n = 6-12", "result": "did not affect performance"},
      {"measurement": "total number of arm entries, combined treatment neurolide-1 + MK-801", "setting": "male Wistar rats; adult rats, neurolide-1 10 mg/kg s.c. twice plus MK-801 0.1 mg/kg, n = 6-12", "result": "significantly increased the total number of arms visited"},
      {"measurement": "working memory (alternation rate) in MK-801-treated animals", "setting": "male Wistar rats; adult rats, neurolide-1 10 mg/kg s.c. twice, MK-801 0.1 mg/kg 2 h before second neurolide-1 injection, n = 6-12", "result": "partially restored working memory"},
      {"measurement": "total number of arm entries, single treatment", "setting": "male Wistar rats; adult rats, peptide alone or MK-801 alone, n = 6-12", "result": "did not change"}
    ]}
  ]
}
